According to patent publication US11236055B2 (Venenum Biodesign, LLC, priority 2016, dated 2022):

Legend:
human TGR5 receptor = molecular target: T1, human TGR5 receptor (Homo sapiens, UniProt Q8TDU6); experiment: Human TGR5 cAMP production assay; type: cell-based; conditions: human TGR5, luminescent cAMP assay; coded A-D; read-out: Human TGR5 Lum. cAMP Activity (EC50)
T1 construct: host or cells: CHO-K1 (hTGR5-CHO cells)
T1 sequence (Q8TDU6 1-330): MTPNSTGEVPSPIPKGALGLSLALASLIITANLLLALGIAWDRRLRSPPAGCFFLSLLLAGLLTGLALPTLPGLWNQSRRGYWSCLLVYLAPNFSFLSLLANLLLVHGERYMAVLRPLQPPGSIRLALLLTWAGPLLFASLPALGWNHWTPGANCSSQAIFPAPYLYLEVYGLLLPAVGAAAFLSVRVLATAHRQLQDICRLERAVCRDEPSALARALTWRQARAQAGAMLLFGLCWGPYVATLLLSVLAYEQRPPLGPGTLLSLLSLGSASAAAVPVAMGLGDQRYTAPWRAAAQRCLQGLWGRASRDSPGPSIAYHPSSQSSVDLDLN
How it was run: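 CHO-K1 cells stably expressing human TGR5, with IBMX and cAMP antibody, were exposed to half-log serially diluted compound for 1 h at room temperature. cAMP measured by enzyme-fragment complementation luminescence (XS+ kit) after overnight incubation; EC50 values reported.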

mouse TGR5 receptor = molecular target: T2, mouse TGR5 receptor (Mus musculus, UniProt Q80SS6); experiment: Mouse TGR5 cAMP production assay (HTRF, Cisbio cAMP HiRange); type: cell-based; conditions: HEK293-EBNA cells overexpressing mouse TGR5, HTRF cAMP HiRange; coded A-D
T2 construct: expressed in transfected cells; host or cells: HEK293-EBNA (293 c18, ATCC CRL10852), Hygromycin B selection
T2 sequence (Q80SS6 1-329): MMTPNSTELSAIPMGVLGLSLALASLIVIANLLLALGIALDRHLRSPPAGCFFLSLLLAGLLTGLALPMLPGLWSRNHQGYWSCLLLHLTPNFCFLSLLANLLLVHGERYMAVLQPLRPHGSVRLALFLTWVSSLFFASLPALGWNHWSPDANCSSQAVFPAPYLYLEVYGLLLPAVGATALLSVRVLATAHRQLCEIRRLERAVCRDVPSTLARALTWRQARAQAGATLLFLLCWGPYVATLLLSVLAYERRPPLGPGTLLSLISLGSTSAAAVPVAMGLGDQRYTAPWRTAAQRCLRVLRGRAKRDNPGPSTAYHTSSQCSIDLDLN
How it was run: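 cAMP read by HTRF competition after 1 h room-temperature compound exposure of mouse TGR5-overexpressing HEK293-EBNA cells. Cells were suspended in serum-free DMEM containing 500 μM IBMX; compounds ran as 12-point half-log dilutions in duplicate; EC50 derived.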

Row | Structure (SMILES) | EC50 (human TGR5 receptor) | EC50 (mouse TGR5 receptor)
1 | CCc1cnccc1-c1cccc([C@H](C)N(CCCCNC(=O)[C@@H](N)CS(=O)(=O)O)S(=O)(=O)c2cccc(Cl)c2C)c1 [Compound 31AD, (R)-2-amino-3-((4-(3-chloro-N-((S)-1-(3-(3-ethylpyridin-4-yl)phenyl)ethyl)-2-methylphenylsulfonamido)butyl)amino)-3-oxopropane-1-sulfonic acid] | < 0.1 µM | < 0.1 µM
2 | Cc1cnccc1-c1cccc([C@H](C)N(CCCC(=O)NCCNC(=O)CS(=O)(=O)O)S(=O)(=O)c2ccccc2C(F)(F)F)c1 [Compound 31AE, (S)-2-((2-(4-(N-(1-(3-(3-methylpyridin-4-yl)phenyl)ethyl)-2-(trifluoromethyl)phenylsulfonamido)butanamido)ethyl)amino)-2-oxoethanesulfonic acid] | < 0.1 µM | 0.1 to 0.999 µM
3 | Cc1cnccc1-c1cccc(C(C)N(CCCNc2c(NCS(=O)(=O)O)c(=O)c2=O)S(=O)(=O)c2cccc(Cl)c2C)c1 (centres unmarked) [Compound 32AA, ((2-((3-(3-chloro-2-methyl-N-(1-(3-(3-methylpyridin-4-yl)phenyl)ethyl)phenylsulfonamido)propyl)amino)-3,4-dioxocyclobut-1-en-1-yl)amino)methanesulfonic acid] | < 0.1 µM | 0.1 to 0.999 µM
4 | Cc1cnccc1-c1cccc(C(C)N(CCCNc2c(NCCC(=O)O)c(=O)c2=O)S(=O)(=O)c2cccc(Cl)c2C)c1 (centres unmarked) [Compound 32AB] | 0.1 to 0.999 µM | 0.1 to 0.999 µM
5 | Cc1cnccc1-c1cccc([C@H](C)N(CCCCNCCC(=O)O)S(=O)(=O)c2cccc(Cl)c2C)c1 [Compound 33, (S)-3-((4-(3-chloro-2-methyl-N-(1-(3-(3-methylpyridin-4-yl)phenyl)ethyl)phenylsulfonamido)butyl)amino)propanoic acid] | 0.1 to 0.999 µM | 0.1 to 0.999 µM
6 | Cc1cnccc1-c1cccc(C(CCCCC#N)NS(=O)(=O)c2cccc(Cl)c2C)c1 (centres unmarked) [Compound 35, 3-chloro-N-(5-cyano-1-(3-(3-methylpyridin-4-yl)phenyl)pentyl)-2-methylbenzenesulfonamide] | 0.1 to 0.999 µM | 0.1 to 0.999 µM
7 | Cc1cnccc1-c1cccc([C@H](C)N(CCCCO)S(=O)(=O)c2cccc(Cl)c2C)c1 [Compound 39, (S)-3-chloro-N-(4-hydroxybutyl)-2-methyl-N-(1-(3-(3-methylpyridin-4-yl)phenyl)ethyl)Benzenesulfonamide] | < 0.1 µM | < 0.1 µM
8 | COc1cnccc1-c1cccc(C2CCCN2S(=O)(=O)c2cccc(C(F)(F)F)c2)c1 (centres unmarked) [Compound 40, 3-methoxy-4-(3-(1-((3-(trifluoromethyl)phenyl)sulfonyl)pyrrolidin-2-yl)phenyl)pyridine] | 0.1 to 0.999 µM | 1 to 30 µM
9 | COc1cnccc1-c1cccc(C2CCCN2S(=O)(=O)c2ccccc2C(F)(F)F)c1 (centres unmarked) [Compound 40AA, 3-methoxy-4-(3-(1-((2-(trifluoromethyl)phenyl)sulfonyl)pyrrolidin-2-yl)phenyl)pyridine] | < 0.1 µM | 1 to 30 µM
10 | Cc1cnccc1-c1cccc(C2CN(C(=O)CCC(=O)O)CCN2S(=O)(=O)c2cccc(Cl)c2C)c1 (centres unmarked) [Compound 46AD, 4-(4-((3-chloro-2-methylphenyl)sulfonyl)-3-(3-(3-methylpyridin-4-yl)phenyl)piperazin-1-yl)-4-oxobutanoic acid] | 0.1 to 0.999 µM | < 0.1 µM
11 | Cc1c(Cl)cccc1S(=O)(=O)N1CCN(C(=O)CCC(=O)O)CC1c1cccc(-c2ccncc2)c1 (centres unmarked) [Compound 46AF, 4-(4-((3-chloro-2-methylphenyl)sulfonyl)-3-(3-(pyridin-4-yl)phenyl)piperazin-1-yl)-4-oxobutanoic acid] | 1 to 30 µM | 1 to 30 µM
12 | Cc1cnccc1-c1cccc(C2CN(C(=O)CCC(=O)O)CCN2S(=O)(=O)c2ccccc2C)c1 (centres unmarked) [Compound 46AI, 4-(3-(3-(3-methylpyridin-4-yl)phenyl)-4-(o-tolylsulfonyl)piperazin-1-yl)-4-oxobutanoic acid] | 0.1 to 0.999 µM | < 0.1 µM

Next, values leading:

Row | EC50 (human TGR5 receptor) | EC50 (mouse TGR5 receptor) | Structure (SMILES)
13 | < 0.1 µM | 0.1 to 0.999 µM | Cc1cnccc1-c1cccc([C@H](C)N(CCCC(=O)NCCNC(=O)[C@@H](N)CS(=O)(=O)O)S(=O)(=O)c2ccccc2C(F)(F)F)c1 [Compound 31AF, (R)-2-amino-3-((2-(4-(N-((S)-1-(3-(3-methylpyridin-4-yl)phenyl)ethyl)-2-(trifluoromethyl)phenylsulfonamido)butanamido)ethyl)amino)-3-oxopropane-1-sulfonic acid]
14 | 1 to 30 µM | 1 to 30 µM | Cc1cnccc1-c1cccc(C(C)N(CCNc2c(NCS(=O)(=O)O)c(=O)c2=O)S(=O)(=O)c2cccc(Cl)c2C)c1 (centres unmarked) [Compound 32, 2-((2-((2-(3-chloro-2-methyl-N-(1-(3-(3-methylpyridin-4-yl)phenyl)ethyl)phenylsulfonamido)ethyl)amino)-3,4-dioxocyclobut-1-en-1-yl)amino)methanesulfonic acid]
15 | 0.1 to 0.999 µM | 0.1 to 0.999 µM | CC(=O)N(CCCCN([C@@H](C)c1cccc(-c2ccncc2C)c1)S(=O)(=O)c1cccc(Cl)c1C)CCC(=O)O [Compound 34, (S)-3-(N-(4-(3-chloro-2-methyl-N-(1-(3-(3-methylpyridin-4-yl)phenyl)ethyl)phenylsulfonamido)butyl)acetamido)propanoic acid]
16 | 1 to 30 µM | 1 to 30 µM | Cc1ccc(S(=O)(=O)NC(CCCCC#N)c2cccc(-c3ccncc3C)c2)nc1 (centres unmarked) [Compound 35B, N-(5-cyano-1-(3-(3-methylpyridin-4-yl)phenyl)pentyl)-5-methylpyridine-2-sulfonamide]
17 | < 0.1 µM | < 0.1 µM | Cc1cnccc1-c1cccc([C@H](C)N(CCCC(=O)NCCS(=O)(=O)NCC(=O)O)S(=O)(=O)c2ccc(F)cc2C(F)(F)F)c1 [Compound 36, (S)-2-(4-(4-fluoro-N-(1-(3-(3-methylpyridin-4-yl)phenyl)ethyl)-2-(trifluoromethyl)phenylsulfonamido)butanamido)ethanesulfonamido acetic acid]
18 | < 0.1 µM | < 0.1 µM | Cc1cnccc1-c1cccc([C@H](C)N(CCCC(=O)NCCNS(=O)(=O)NOC(C)(C)C)S(=O)(=O)c2cccc(Cl)c2C)c1 [Compound 37A]
19 | < 0.1 µM | < 0.1 µM | CCc1cnccc1-c1cccc([C@H](C)N(CCCC(=O)NCCNS(=O)(=O)NCC(=O)O)S(=O)(=O)c2cccc(Cl)c2C)c1 [Compound 38AA, (S)-2-((N-(2-(4-(3-chloro-N-(1-(3-(3-ethylpyridin-4-yl)phenyl)ethyl)-2-methylphenylsulfonamido)butanamido)ethyl)sulfamoyl)amino)acetic acid]
20 | 0.1 to 0.999 µM | 0.1 to 0.999 µM | Cc1cnccc1-c1cccc(C2CNCCN2S(=O)(=O)c2cccc(Cl)c2C)c1 (centres unmarked) [Compound 43AE, 1-((3-chloro-2-methylphenyl)sulfonyl)-2-(3-(3-methylpyridin-4-yl)phenyl)piperazine]
21 | 0.1 to 0.999 µM | < 0.1 µM | CC(=O)N1CCN(S(=O)(=O)c2ccccc2C(F)(F)F)C(c2cccc(-c3ccncc3C)c2)C1 (centres unmarked) [Compound 45, 1-(3-(3-(3-methylpyridin-4-yl)phenyl)-4-((2-(trifluoromethyl)phenyl)sulfonyl)piperazin-1-yl)ethanone]
22 | < 0.1 µM | < 0.1 µM | CCc1cnccc1-c1cccc(C2CN(C(=O)CN(C)CC(=O)O)CCN2S(=O)(=O)c2cccc(Cl)c2C)c1 (centres unmarked) [Compound 46AC, 2-((2-(4-((3-chloro-2-methylphenyl)sulfonyl)-3-(3-(3-ethylpyridin-4-yl)phenyl)piperazin-1-yl)-2-oxoethyl)(methyl)amino)acetic acid]
23 | < 0.1 µM | < 0.1 µM | Cc1cnccc1-c1cccc(C2CN(C(=O)CCCC(=O)O)CCN2S(=O)(=O)c2cccc(Cl)c2C)c1 (centres unmarked) [Compound 46AE, 5-(4-((3-chloro-2-methylphenyl)sulfonyl)-3-(3-(3-methylpyridin-4-yl)phenyl)piperazin-1-yl)-5-oxopentanoic acid]
24 | 0.1 to 0.999 µM | < 0.1 µM | Cc1c(Cl)cccc1S(=O)(=O)N1CCN(C(=O)CCC(=O)O)CC1c1cccc(-c2ccncc2Cl)c1 (centres unmarked) [Compound 46AG, 4-(4-((3-chloro-2-methylphenyl)sulfonyl)-3-(3-(3-chloropyridin-4-yl)phenyl)piperazin-1-yl)-4-oxobutanoic acid]
25 | 0.1 to 0.999 µM | < 0.1 µM | COc1cnccc1-c1cccc(C2CN(C(=O)CCC(=O)O)CCN2S(=O)(=O)c2cccc(Cl)c2C)c1 (centres unmarked) [Compound 46AH, 4-(4-((3-chloro-2-methylphenyl)sulfonyl)-3-(3-(3-methoxypyridin-4-yl)phenyl)piperazin-1-yl)-4-oxobutanoic acid]
